Consider 23 molecules from PubChem BioAssay (NCI).

Some test systems named below: HCT-15 colon; U251 CNS; HT29 colon; KM12 colon; SK-OV-3 ovarian; COLO 205 colon; NCI/ADR-RES ovarian; K-562 leukemia; A498 renal; SF-539 CNS.
Holding throughout (assay): inhibition of tumour cell growth, NCI panel, 48 h

Molecules are shown by their SMILES.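 All cell lines were grown in 96-well plates and treated with compound for 48 hours. Abbreviation: GI50, concentration required for 50% inhibition of growth. Definition used: TGI = concentration required for complete inhibition of growth.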 Where a SMILES comes first, the peptide text is derived from it. [ ]: non-standard residue; d: D form. The star is where a group is joined. Bn2Val = CC(C)[C@@H](C(=O)*)N(Cc1ccccc1)Cc1ccccc1; NH(4-Cl-benzyl) = Clc1ccc(CN*)cc1; NMeV = CN[C@H](C(=O)O)C(C)C; dNMeA = CN[C@H](C)C(=O)O Some results are limits rather than exact numbers.

Regarding `CN(C)/N=N/c1nc2c(c(=O)n(C)c(=O)n2C)n1CC(O)CO` (centres undefined), the TGI with HCT-15 colon, in the test on U251 CNS, with HT29 colon, in the test with KM12 colon, in the test on SK-OV-3 ovarian and in the test on COLO 205 colon was over 100 µM throughout. Moreover, the TGI with NCI/ADR-RES ovarian and in the test on K-562 leukemia was over 100 µM in each case.

With `O=C1c2c(O)cccc2-c2nn(CCNCCO)c3ccc(NCCNCCO)c1c23`, the TGI came to 70.5 µM with HCT-15 colon; 0.195 µM in the test with U251 CNS; 13.1 µM in the test on HT29 colon; 7.73 µM in the test on KM12 colon; 0.578 µM in the test on A498 renal; 1.14 µM in the test on SK-OV-3 ovarian. The TGI in the test with SF-539 CNS is 1.1 µM; with COLO 205 colon, 1.67 µM; in the test on NCI/ADR-RES ovarian, over 100 µM.

For `CN=C(/N=c1\ssc(=NC)n1C)N(C)C`, the TGI in the test on U251 CNS, with HT29 colon, in the test with KM12 colon, in the test on A498 renal, in the test on SK-OV-3 ovarian and with SF-539 CNS was over 100 µM throughout. Moreover, the TGI in the test with COLO 205 colon and in the test with K-562 leukemia was over 100 µM each time.

In the case of `CC(C)[C@H](NC(=O)[C@H](C(C)C)N(Cc1ccccc1)Cc1ccccc1)C(=O)N(C)[C@H](C(=O)N1CCC[C@H]1C(=O)N(C)[C@H](C)C(=O)NCc1ccc(Cl)cc1)C(C)C` (Bn2Val-V[NMeV]P[dNMeA]-{NH(4-Cl-benzyl)}), the TGI was 41.2 µM with HCT-15 colon; 20.1 µM in the test with U251 CNS; 3.54 µM in the test on HT29 colon; over 100 µM with KM12 colon; over 100 µM in the test on SK-OV-3 ovarian; 62.3 µM in the test on SF-539 CNS. For the same molecule, the results for the TGI in the test on NCI/ADR-RES ovarian and in the test on K-562 leukemia were 95.7 µM and over 100 µM, respectively.

For `Cc1cc(C)c2c(c1)C(=O)/C(=C/c1ccccc1C(=O)O)C2`, the TGI with HCT-15 colon was over 100 µM; in the test on U251 CNS, over 100 µM; with HT29 colon it was over 100 µM; in the test with KM12 colon, over 100 µM; in the test with A498 renal, over 100 µM; in the test on SF-539 CNS it was 89.3 µM. For the same molecule, in the test on K-562 leukemia, the TGI is over 100 µM.

Take `CCN=C1C=CC(=C(c2ccc(N(CC)CC)cc2)c2ccc(N(CC)CC)cc2)c2ccccc21`: the GI50 was 0.299 µM with HCT-15 colon; 0.0348 µM with U251 CNS; 0.033 µM with HT29 colon; 0.0692 µM in the test on A498 renal; 0.0823 µM in the test on SK-OV-3 ovarian; 0.35 µM with NCI/ADR-RES ovarian. In addition, the TGI in the test on HCT-15 colon came to 1.21 µM; with U251 CNS, 1.11 µM; with HT29 colon, 1.01 µM; with A498 renal, 0.444 µM; in the test on SK-OV-3 ovarian, 0.601 µM; with NCI/ADR-RES ovarian, 2.11 µM.

Regarding `c1ccc(CN2CCC(Nc3ccccc3)(c3nnnn3Cc3ccccc3)CC2)cc1`, the TGI is 97.9 µM in the test on HCT-15 colon; over 100 µM with U251 CNS; 24.2 µM in the test with HT29 colon; 33.3 µM in the test on KM12 colon; 63.8 µM with A498 renal; over 100 µM in the test with SK-OV-3 ovarian. Moreover, the TGI was 41.5 µM in the test with SF-539 CNS, 28.9 µM with COLO 205 colon and over 100 µM in the test on NCI/ADR-RES ovarian.

On to `C=CCC1C(O[Si](C)(C)C(C)(C)C)C(CO[Si](C)(C)C(C)(C)C)OC1n1ccc(=O)[nH]c1=O` (centres undefined), for which the TGI with HCT-15 colon is 2.64 µM; in the test with U251 CNS, 5.66 µM; with HT29 colon, 2.8 µM; with KM12 colon it was over 100 µM; with A498 renal, 3.68 µM; in the test on SF-539 CNS it was 3.03 µM. Also, the results for the TGI in the test with COLO 205 colon and with NCI/ADR-RES ovarian were 3.13 µM and 3.48 µM, respectively.

For `CN1C(=O)C(O)C[C@@H]1c1ccccc1` (some centres undefined), the TGI in the test on HCT-15 colon, in the test on U251 CNS, in the test with HT29 colon, in the test with KM12 colon, in the test with SK-OV-3 ovarian and in the test with SF-539 CNS was over 100 µM each time. The TGI with COLO 205 colon and in the test on NCI/ADR-RES ovarian was over 100 µM each time.

On to `COc1ccc(C(SC2C(O)C(CO)OC2n2ccc(=O)[nH]c2=O)(c2ccccc2)c2ccc(OC)cc2)cc1` (centres undefined), for which the TGI in the test with HCT-15 colon is 33.3 µM; in the test with U251 CNS, 30 µM; with HT29 colon, 35.6 µM; in the test on KM12 colon it was 39.2 µM; in the test with SK-OV-3 ovarian it was 84.7 µM; in the test on SF-539 CNS, 39.2 µM. For the same molecule, the TGI is 34.9 µM in the test on COLO 205 colon, 47.1 µM with NCI/ADR-RES ovarian and over 100 µM with K-562 leukemia.

In the case of `NCc1cccc(O)c1O`, the TGI in the test with HCT-15 colon, in the test with U251 CNS, in the test with HT29 colon, in the test on KM12 colon, with A498 renal and with SK-OV-3 ovarian was over 100 µM each time. Besides, the TGI in the test on COLO 205 colon and in the test on K-562 leukemia was over 100 µM in each case.

As to `COc1cc(C2C(Cl)C(=O)N2c2c(C)n(C)n(-c3ccccc3)c2=O)ccc1O` (centres undefined), the TGI amounted to 38 µM in the test on U251 CNS; 36 µM in the test on HT29 colon; 44.6 µM with KM12 colon; 80.2 µM with SK-OV-3 ovarian; 39.4 µM in the test with SF-539 CNS; 34.3 µM with COLO 205 colon. Further, the TGI in the test on NCI/ADR-RES ovarian was 75.8 µM; in the test on K-562 leukemia it was over 100 µM.

For the molecule `COc1cc(C2C3=C(COC3=O)Oc3cc4c(cc32)OCO4)cc(OC)c1O` (centres undefined), the TGI in the test with HCT-15 colon is over 100 µM; in the test on U251 CNS, 14 µM; in the test with HT29 colon it was 0.984 µM; with KM12 colon it was over 100 µM; in the test with A498 renal, 6.75 µM; in the test with SK-OV-3 ovarian, 1.48 µM. For the same molecule, the results for the TGI in the test with SF-539 CNS, in the test on COLO 205 colon and in the test on K-562 leukemia were under 0.0148 µM, 0.0776 µM and 0.402 µM, respectively.

As for `COc1ccc(Nc2ccc3ccccc3c2-c2c(O)ccc3ccccc23)cc1`, the TGI with HCT-15 colon is 38.5 µM; with U251 CNS it was 56 µM; in the test with HT29 colon it was 29.6 µM; with KM12 colon, 29.5 µM; with SF-539 CNS, 51.1 µM; in the test with COLO 205 colon it was 47 µM. The TGI with NCI/ADR-RES ovarian worked out at 36.5 µM; with K-562 leukemia it was 54.4 µM.

As to `O=c1c(-c2ccccc2)c(SCCO)n(-c2ccccc2)c(=S)n1-c1ccccc1`, the TGI in the test with HCT-15 colon, in the test on U251 CNS, with HT29 colon, with KM12 colon, in the test on SK-OV-3 ovarian and with COLO 205 colon was over 100 µM each time. The TGI with NCI/ADR-RES ovarian and in the test with K-562 leukemia was over 100 µM in each case.

With `COc1ccc(OC)c(SC(CC(=O)c2ccccc2)c2ccccc2)c1` (centres undefined), the TGI in the test on HCT-15 colon was found to be 35.4 µM; with U251 CNS it was 31 µM; in the test with HT29 colon, 35.8 µM; in the test with KM12 colon it was 15.2 µM; in the test on SK-OV-3 ovarian, 40.3 µM; in the test on SF-539 CNS, 15.7 µM. Besides, the TGI with COLO 205 colon was 37.3 µM; in the test on NCI/ADR-RES ovarian it was 32.4 µM; in the test on K-562 leukemia it was over 100 µM.

For the molecule `C=CCP(=O)(CC=C)C(Cl)Cl`, the TGI in the test on HCT-15 colon, with U251 CNS, in the test on HT29 colon, with SK-OV-3 ovarian, with COLO 205 colon and with NCI/ADR-RES ovarian was over 100 µM throughout. In the test on K-562 leukemia, this molecule came in with a TGI of over 100 µM.

Turning to `COc1cccc(C=O)c1[O-].[O]=[U](=[O])([OH2+])[OH2+]`, the TGI in the test with HCT-15 colon is over 100 µM; in the test with U251 CNS it was 59.1 µM; in the test on HT29 colon, over 100 µM; with KM12 colon, over 100 µM; with A498 renal, over 100 µM; in the test on SK-OV-3 ovarian, 63.6 µM. Besides, the TGI in the test on SF-539 CNS was 64.9 µM; in the test on COLO 205 colon, over 100 µM; in the test with K-562 leukemia it was over 100 µM.

In the case of `c1ccc(/C(=N/Nc2ccncn2)c2ccccn2)cc1`, the TGI in the test with HCT-15 colon was over 100 µM; with U251 CNS it was over 100 µM; with HT29 colon it was over 100 µM; with KM12 colon, 93 µM; with SK-OV-3 ovarian, 75.7 µM; with SF-539 CNS it was over 100 µM. Further, the TGI in the test with NCI/ADR-RES ovarian was 49 µM; in the test with K-562 leukemia, over 100 µM.

For `Cc1cc(OC(=O)NCn2cc(-c3ccccc3)nn2)ccc1Cl`, the TGI with HCT-15 colon, in the test with U251 CNS, in the test on HT29 colon, in the test on KM12 colon, in the test with SF-539 CNS and in the test with COLO 205 colon was over 100 µM throughout. Also, the TGI in the test with NCI/ADR-RES ovarian and with K-562 leukemia was over 100 µM in each case.

As for `COC[C@@H](N=Cc1ccc([N+](=O)[O-])cc1)C(C)C`, the TGI in the test with HCT-15 colon, with U251 CNS, with HT29 colon, with KM12 colon, with SK-OV-3 ovarian and in the test with NCI/ADR-RES ovarian was over 100 µM throughout. Further, the TGI in the test with K-562 leukemia was over 100 µM.

Take `O=C1NC(=O)C(C(CC(=O)c2ccc(Cl)cc2)c2ccc(Cl)cc2)C(=O)N1` (centres undefined): the TGI with HCT-15 colon, in the test on U251 CNS, in the test on HT29 colon, in the test on KM12 colon, in the test with A498 renal and in the test with SF-539 CNS was over 100 µM in each case. The TGI in the test with K-562 leukemia is over 100 µM.

For the molecule `Cc1ccc(S(=O)CC(CF)OCn2cc(C)c(=O)[nH]c2=O)cc1` (centres undefined), the TGI with HCT-15 colon, with U251 CNS, in the test with KM12 colon, in the test with SK-OV-3 ovarian, in the test with SF-539 CNS and in the test on COLO 205 colon was over 100 µM in each case. Moreover, the TGI in the test with NCI/ADR-RES ovarian is over 100 µM.
